From patent US20070093455A1, “10-substituted tetracyclines and methods of use thereof” (priority 2005, published 2007)
In brackets after ≈: the same amount, converted by molar mass.

What was measured:
S. aureus RN4250 = assay: In vitro MIC assay, S. aureus RN4250; assay type: cell-based; conditions: Staphylococcus aureus, broth microdilution, 35° C., 18-24 hours
P. acnes (PBS 1073) = assay: In vitro MIC assay, P. acnes (PBS 1073); assay type: cell-based; conditions: Cutibacterium acnes; Brucella agar with laked sheep blood, 48 hours anaerobic, 35° C.
[1] = system: Mouse 3T3 fibroblast cells; assay: Phototoxicity assay (neutral red); assay type: cell-based; conditions: 3T3 cells
Procedure: Mouse 3T3 fibroblast cells were harvested and plated at a concentration of 1×10^5 cells/mL. Drug dilutions were made in HBSS and added to the plates. Duplicate plates were then incubated in the dark (for controls), or under UV light (meter reading of 1.6-1.8 mW/cm^2) for 50 minutes. Cells were then washed with HBSS, fresh medium was added, and plates were then incubated overnight. The following day, neutral red was added as an indicator of cell viability and plates were incubated for an additional 3 hours. Cells were then washed with HBSS and a solution of 50% EtOH, 10% glacial acetic acid is added. After a 20 minute incubation period, plates absorbance at 535 nm were read using a Wallac Victor 5 spectrophotometer. The phototoxicity in light-treated and control cultures was then compared.

S. aureus RN450 = assay: In vitro MIC assay, S. aureus RN450; assay type: cell-based; conditions: Staphylococcus aureus, broth microdilution, 35° C., 18-24 hours
S. aureus MRSA5 = assay: In vitro MIC assay, S. aureus MRSA5; assay type: cell-based; conditions: Staphylococcus aureus, broth microdilution, 35° C., 18-24 hours
E. coli MG 1655 DWAK = assay: In vitro MIC assay, E. coli MG 1655 DWAK; assay type: cell-based; conditions: Escherichia coli, MG1655DWAK; broth microdilution, 35° C., 18-24 hours
Procedure: The following assay was used to determine the efficacy of tetracycline compounds against common bacteria. Serial dilutions of compounds were prepared in microdilution plates using a Tecan robotic workstation. Mueller Hinton broth cultures of gram negative and gram positive strains were grown or adjusted to match the turbidity of a 0.5 McFarland standard. 1:200 dilutions were made in appropriate broth (cation supplemented Mueller Hinton broth or Haemophilus test medium) to allow a final inoculum of 1×10^5 cfu. Lysed horse blood was used to supplement broth for testing S. pneumoniae. The plates were incubated at 35° C. in ambient air for 18-24 hours, read spectrophotometrically, and checked manually for evidence of bacterial growth. Serial dilutions of compounds were also added to Brucella agar supplemented with laked sheep blood for P. acnes tests. A standard inoculum was transferred to the plate using a stainless steel replicator. After 48 hours of anaerobic incubation at 35° C. plates were examined. The MIC was defined as the lowest concentration of the tetracycline compound that inhibits growth. Table 3 gives the MIC (μg/mL) of selected substituted tetracycline compounds against a variety of gram positive and gram negative bacteria.

S. pneumoniae 157E = assay: In vitro MIC assay, S. pneumoniae 157E; assay type: cell-based; conditions: Streptococcus pneumoniae, broth supplemented with lysed horse blood, 35° C., 18-24 hours
[2] = system: H. influenza (ATCC 49247); assay: In vitro MIC assay, H. influenza (ATCC 49247); assay type: cell-based; conditions: read-out: MIC H. influenza (ATCC 49247)
[3] = system: carrageenan induced paw edema; assay: Rat model of carrageenan induced paw edema; assay type: in vivo; conditions: 3 hours after carrageenan injection
Procedure: Carrageenan-induced paw edema represents a commonly used experimental model to assess the anti-inflammatory properties of agents. In this example, male Sprague-Dawley rats (Charles River, Mass.) weighing 175-250 grams were used. Test compounds were administered intraperitoneally 5 minutes or orally 15 minutes before a subplantar injection of carrageenan (5 mg/1 ml) in the rat right hind paw. The paw volume (ml) was monitored with a plethysmometer (Water Plethysmometer) at time of carrageenan injection (baseline) and 3 hours after carrageenan injection. […] Both results were statistically significant with a p<0.1 level by Kruskal-Wallis One Way ANOVA, ChiSquare. There were approximately four rats per group.

P. acnes (PBS 1080) = assay: In vitro MIC assay, P. acnes (PBS 1080); assay type: cell-based; conditions: Cutibacterium acnes; Brucella agar with laked sheep blood, 48 hours anaerobic, 35° C.
P. acnes (PBS 1074) = assay: In vitro MIC assay, P. acnes (PBS 1074); assay type: cell-based; conditions: Cutibacterium acnes; Brucella agar with laked sheep blood, 48 hours anaerobic, 35° C.
E. coli (ATCC 25922) = assay: In vitro MIC assay, E. coli (ATCC 25922); assay type: cell-based; conditions: Escherichia coli, ATCC25922; broth microdilution, 35° C., 18-24 hours
P. acnes (ATCC 11827) = assay: In vitro MIC assay, P. acnes (ATCC 11827); assay type: cell-based; conditions: Cutibacterium acnes, ATCC11827; Brucella agar with laked sheep blood, 48 hours anaerobic, 35° C.
B. fragilis (ATCC 25285) = assay: In vitro MIC assay, B. fragilis (ATCC 25285); assay type: cell-based; conditions: Bacteroides fragilis, ATCC25285
P. acnes (ATCC 6919) = assay: In vitro MIC assay, P. acnes (ATCC 6919); assay type: cell-based; conditions: Cutibacterium acnes, ATCC6919; Brucella agar with laked sheep blood, 48 hours anaerobic, 35° C.
P. granulosum (PBS 1048) = assay: In vitro MIC assay, P. granulosum (PBS 1048); assay type: cell-based
P. acnes (PBS 994) = assay: In vitro MIC assay, P. acnes (PBS 994); assay type: cell-based; conditions: Cutibacterium acnes; Brucella agar with laked sheep blood, 48 hours anaerobic, 35° C.
[4] = system: B. theraiotaomicron (ATCC 29741); assay: In vitro MIC assay, B. theraiotaomicron (ATCC 29741); assay type: cell-based
P. aeruginosa K1033 = assay: In vitro MIC assay, P. aeruginosa K1033; assay type: cell-based; conditions: Pseudomonas aeruginosa, broth microdilution, 35° C., 18-24 hours
P. granulosum (PBS 1098) = assay: In vitro MIC assay, P. granulosum (PBS 1098); assay type: cell-based
COS-1 or CHO cell = assay: Mammalian cell cytotoxicity assay (Resazurin; Alamar Blue); assay type: cell-based; conditions: COS-1 or CHO cells, 24 hour incubation
Procedure: To predict the in vivo risks associated with the compounds of the invention, a soluble, non-toxic redox dye (“Resazurin”; Alamar Blue) was used to assess a compound's effect on cellular metabolism. COS-1 or CHO cell suspensions were prepared, seeded into 96-well black-walled microtiter plates, and incubated overnight at 37° C., in 5% CO2 and approximately 95% humidity. On the next day, serial dilutions of test drug were prepared and transferred to cell plates. Following a 24 hour incubation period, the media/drug was aspirated, and 50 μL of resazurin was added. After a 2 hour incubation, fluorescence measurements were taken (excitation […], emission 590 nm) and toxic effects in treated versus control cells were compared based on the degree of fluorescence in each well.

E. coli translation = assay: In vitro translation assay for inhibition of bacterial protein synthesis (E. coli S30 Extract System, luciferase); assay type: biochemical; conditions: 37° C., 1 hour, luciferase luminescence
Procedure: As a further measure of antibacterial activity, an E. coli S30 Extract System was used to quantitate inhibition of E. coli translation by tetracycline derivatives. This system contained all required components for translation, including a nucleic acid template which, when translated, produces functional luciferase. The reactions were set up with E. coli S30 extract, amino acids, DNA template and selected tetracycline compounds at concentrations of 100, 50, 25, 10, 5, and 1 μg/ml. The reactions were incubated at 37° C. for 1 hour and analyzed by adding the reaction mix to Steady-Glo Luciferase Assay substrate (Promega, Madison Wis.). Luminescence was measured with the Wallac Victor5 plate reader and inhibition is calculated by comparing luciferase activity in experimental reactions versus controls.

P. acnes (ATCC 1077) = assay: In vitro MIC assay, P. acnes (ATCC 1077); assay type: cell-based; conditions: Cutibacterium acnes, ATCC1077; Brucella agar with laked sheep blood, 48 hours anaerobic, 35° C.

SMILES | MIC (S. aureus RN4250) [µg/mL] | MIC (P. acnes (PBS 1073)) [µg/mL] | phototoxicity at 150 μM, incubated in the dark [1] | MIC (S. aureus RN450) [µg/mL] | MIC (S. aureus MRSA5) [µg/mL] | MIC (E. coli MG 1655 DWAK) [µg/mL] | MIC (S. pneumoniae 157E) [µg/mL] | MIC [2] [µg/mL] | MIC (P. acnes (PBS 1074)) [µg/mL] | MIC (E. coli (ATCC 25922)) [µg/mL] | MIC (P. acnes (ATCC 11827)) [µg/mL] | MIC (B. fragilis (ATCC 25285)) [µg/mL] | MIC (P. acnes (ATCC 6919)) [µg/mL] | MIC [4] [µg/mL] | MIC (P. aeruginosa K1033) [µg/mL] | cytotoxicity at 75 μg/mL (COS-1 or CHO cell) | MIC (P. acnes (ATCC 1077)) [µg/mL] | further results
CN(C)c1cccc2c1CC1CC3[C@H](N(C)C)C(O)=C(C(N)=O)C(=O)[C@@]3(O)C(O)=C1C2=O (some centres unmarked) [Compound A] | 0 to 21 | 9 to 27 (≈ 20.4 to 61.2 µM) | not to be appreciably phototoxic | 0 to 21 | 44 to 64 (≈ 99.7 to 145 µM) | 0 to 21 | 0 to 21 | 22 to 43 (≈ 49.8 to 97.4 µM) | 9 to 27 (≈ 20.4 to 61.2 µM) | 22 to 43 (≈ 49.8 to 97.4 µM) | 0 to 8 | 0 to 8 | 0 to 8 | 9 to 27 (≈ 20.4 to 61.2 µM) | 0 to 21 | minimal cytotoxicity | 9 to 27 (≈ 20.4 to 61.2 µM) | decrease in paw inflammation relative to the untreated control ([3]; 75 mg/kg IP): 60%; MIC (P. acnes (PBS 1080)): 9 to 27 µg/mL (≈ 20.4 to 61.2 µM); MIC (P. granulosum (PBS 1048)): 9 to 27 µg/mL (≈ 20.4 to 61.2 µM); MIC (P. acnes (PBS 994)): 9 to 27 µg/mL (≈ 20.4 to 61.2 µM); MIC (P. granulosum (PBS 1098)): 9 to 27 µg/mL (≈ 20.4 to 61.2 µM); IC20 (E. coli translation): > 100 µM; IC50 (E. coli translation): > 100 µM
CN(C)[C@H]1C(O)=C(C(N)=O)C(=O)[C@@]2(O)C(O)=C3C(=O)c4cccc(-c5ncccn5)c4CC3CC12 (some centres unmarked) [L] | 0 to 21 | 28 to 32 (≈ 58.8 to 67.2 µM) | – | 0 to 21 | 0 to 21 | 0 to 21 | 0 to 21 | 44 to 64 (≈ 92.3 to 134 µM) | 28 to 32 (≈ 58.8 to 67.2 µM) | 22 to 43 (≈ 46.2 to 90.2 µM) | 0 to 8 | 0 to 8 | 0 to 8 | 28 to 32 (≈ 58.8 to 67.2 µM) | 0 to 21 | minimal cytotoxicity | 28 to 32 (≈ 58.8 to 67.2 µM) | –
CN(C)c1ccc(O)c2c1C[C@H]1C[C@H]3[C@H](N(C)C)C(O)=C(C(N)=O)C(=O)[C@@]3(O)C(O)=C1C2=O [Minocycline, reference compound] | – | – | – | – | – | – | – | – | – | – | – | – | – | – | – | – | – | reduced inflammation relative to the untreated control ([3]; 50 mg/kg IP, positive control): 70%
CC(=O)c1cccc2c1CC1CC3[C@H](N(C)C)C(O)=C(C(N)=O)C(=O)[C@@]3(O)C(O)=C1C2=O (some centres unmarked) [J] | 0 to 21 | 28 to 32 (≈ 63.6 to 72.7 µM) | not to be appreciably phototoxic | 0 to 21 | 0 to 21 | 0 to 21 | 0 to 21 | 0 to 21 | 28 to 32 (≈ 63.6 to 72.7 µM) | 0 to 21 | 0 to 8 | 0 to 8 | 0 to 8 | 28 to 32 (≈ 63.6 to 72.7 µM) | 0 to 21 | minimal cytotoxicity | 28 to 32 (≈ 63.6 to 72.7 µM) | –
CC1CCN(Cc2cccc3c2CC2CC4[C@@H](N(C)C)C(O)=C(C(N)=O)C(=O)[C@@]4(O)C(O)=C2C3=O)CC1 (some centres unmarked) [K] | 0 to 21 | 28 to 32 (≈ 54.9 to 62.8 µM) | – | 0 to 21 | 0 to 21 | 0 to 21 | 0 to 21 | 0 to 21 | 28 to 32 (≈ 54.9 to 62.8 µM) | 0 to 21 | 0 to 8 | 0 to 8 | 0 to 8 | 28 to 32 (≈ 54.9 to 62.8 µM) | 0 to 21 | minimal cytotoxicity | 28 to 32 (≈ 54.9 to 62.8 µM) | –
CC(=O)c1cccc2c1CC1CC3[C@@H](N(C)C)C(O)=C(C(N)=O)C(=O)[C@@]3(O)C(O)=C1C2=O (some centres unmarked) [I] | 0 to 21 | 28 to 32 (≈ 63.6 to 72.7 µM) | not to be appreciably phototoxic | 0 to 21 | 0 to 21 | 0 to 21 | 0 to 21 | 0 to 21 | 28 to 32 (≈ 63.6 to 72.7 µM) | 22 to 43 (≈ 49.9 to 97.6 µM) | 0 to 8 | 0 to 8 | 0 to 8 | 28 to 32 (≈ 63.6 to 72.7 µM) | 0 to 21 | minimal cytotoxicity | 28 to 32 (≈ 63.6 to 72.7 µM) | phototoxicity at 30 μM, incubated in the UV light ([1]; UV light 1.6-1.8 mW/cm^2, 30 μM): minimally phototoxic
